For 58 molecules, EC50 results are on record in PubChem BioAssay AID2635 (Broad Institute, 2010).

By EC50 is commonly meant the midpoint of the concentration-response curve.

SMILES strings stand for the structures. Results filed as inconclusive are left out. The source made the active and inactive calls. The rule behind the calls is not given here.

The experiment deals with BJ-TERT RAS-dependent fibroblast cytotoxicity, fluorescence. The experiment is described as follows: cytotoxicity toward RAS-dependent BJ-TERT fibroblasts, dose response, cell-based, fluorescence viability readout (AID 2635).
In the case of `O=C(CCl)N=c1sccn1Cc1ccccc1Cl`, the EC50 is > 2.08 µM (inactive). Under `COc1ccc(C[C@H]2NC[C@H](O)[C@H]2OC(C)=O)cc1` stands 0.0456 µM; under `O=C(Cc1ccc([N+](=O)[O-])cc1)N/N=C/c1ccc([N+](=O)[O-])o1`, > 6.67 µM (inactive); under `O=S(=O)(c1ccc(NC(=S)NCc2cccnc2)cc1)N1CCCCC1`, > 6.67 µM (inactive). Under `CCOc1ccc(CC(=O)Nc2ccc(NC(=O)c3ccco3)cc2)cc1OCC` stands > 6.67 µM (inactive); under `COC(=O)C[C@](O)(CCCC(C)(C)O)C(=O)O[C@@H]1C(OC)=C[C@]23CCCN2CCc2cc4c(cc2[C@H]13)OCO4`, 0.00683 µM. The same measure for `C=C1C(=O)O[C@@H]2C[C@@H](C)[C@@H]3C=CC(=O)[C@@]3(C)[C@@H](OC(=O)CC(=O)O[C@H]3[C@@H]4C(=C)C(=O)O[C@@H]4C[C@@H](C)[C@@H]4C=CC(=O)[C@]43C)[C@H]12`: 0.144 µM; for `COc1ccc(Cc2nc(-c3ccc(NC(=O)c4cccnc4)cc3)no2)cc1`: > 6.67 µM (inactive). Take `O=C(NCc1cccnc1)c1ccc(-c2cc3ccccc3oc2=O)cc1`: the EC50 is > 6.67 µM (inactive). `CCc1ccc(/C=C2\SC(=S)N(CCC(=O)NCCCN3CCOCC3)C2=O)cc1`: the EC50 is > 6.67 µM (inactive). The same measure for `Cc1ccc(N(C(=O)CCl)C(C(=O)NC2CCCCC2)c2cccnc2)cc1C` (stereo not drawn): 0.26 µM; for `CC(C)(C)c1nnc(N/N=C/c2cc(Br)ccc2O)n(N)c1=O`: 1.91 µM; for `Cc1cccnc1Nc1nc(-c2ccccn2)cs1`: 0.985 µM. Under `O=[N+]([O-])c1ccc(N=Nc2ncc[nH]2)cc1` stands > 6.67 µM (inactive); under `O=C(NCCOc1cccnc1)c1ccc(OC2CCN(Cc3ccccn3)CC2)cc1`, 5.19 µM. The same measure for `CC[C@@]1(O)C(=O)OCc2c1cc1n(c2=O)Cc2cc3c(CN(C)C)c(O)ccc3nc2-1`: 0.23 µM; for `CC[C@@]1(O)C(=O)OCc2c1cc1n(c2=O)Cc2cc3c(NC(=O)CN)cccc3nc2-1`: 5.85 µM. In the case of `Cc1cccc(Nc2nc(N)nc(CCl)n2)c1C`, the EC50 was > 6.67 µM (inactive). As to `Nc1nc(CCl)nc(Nc2cccc3ccccc23)n1`, the EC50 was > 6.67 µM (inactive).

In the case of `CN1CCN(C(=O)CCCN2C(=O)/C(=C/c3cccc(Br)c3)SC2=S)CC1`, the EC50 was > 6.67 µM (inactive).

For `CCc1ccc(/C=C2/SC(=S)N(CCC(=O)NCCCN3CCOCC3)C2=O)cc1`, the EC50 is > 6.67 µM (inactive).

Turning to `CC[C@@]1(O)C(=O)OCc2c1cc1n(c2=O)Cc2cc3ccccc3nc2-1`, the EC50 was 0.0178 µM.

As to `CC(Oc1ccc(Cl)cc1Cl)c1nc(-c2ccc(NC(=O)c3cccnc3)cc2)no1` (stereo not drawn), the EC50 is > 6.67 µM (inactive). Consider `C/C(=N\Nc1ncc(Cl)cc1Cl)c1ccccn1`, for which the half-maximal effective concentration (EC50) was 0.0273 µM. The same measure for `COC(=O)[C@@H]1Cc2c([nH]c3ccccc23)C(C)(C)N1C(=O)CCl`: > 6.67 µM (inactive); for `C=CCOc1ccccc1CN(C(=O)CCl)c1ccc2c(c1)OCO2`: > 6.67 µM (inactive).

With `O=C(CCN1C(=O)/C(=C\c2cccc(Br)c2)SC1=S)NCCCN1CCOCC1`, the EC50 was > 6.67 µM (inactive). Under `CC(C)(C)c1ccc(C(=O)Nc2ccc(C(=O)NCc3cccnc3)cc2)cc1` stands > 6.67 µM (inactive). As to `COc1cccc(N(C(=O)CCl)C(C(=O)NCCc2ccccc2)c2cccs2)c1` (stereo not drawn), the EC50 is 6.05 µM.

For `O=C(NCc1cccnc1)c1ccc(NC(=O)c2ccc([N+](=O)[O-])cc2)cc1`, the EC50 was > 6.67 µM (inactive). On to `Cc1ccc(Nc2nc(N)nc(CCl)n2)c(C)c1`, for which the EC50 is > 6.67 µM (inactive). As to `Oc1ccccc1N=Nc1nc(-c2ccccc2)c(-c2ccccc2)[nH]1`, the EC50 was 0.374 µM. As to `CC1=CC(=O)C=C(C)C1=NOc1ccccc1[N+](=O)[O-]`, the EC50 is > 6.67 µM (inactive). Take `CC(=O)Nc1ccc(NC(=O)CN(c2cccc([N+](=O)[O-])c2)S(C)(=O)=O)cc1`: the EC50 is > 6.67 µM (inactive). Under `COc1cccc(/C=C2\SC(=S)N(CCCC(=O)N(CCO)c3ccccc3)C2=O)c1` stands > 6.67 µM (inactive). The same measure for `CCc1ccc(/C=C2/SC(=S)N(CCC(=O)Nc3cccnc3)C2=O)cc1`: > 6.67 µM (inactive); for `COc1ccc(C(C(=O)NC2CCCCC2)N(C(=O)CCl)c2cccc(Cl)c2)cc1` (stereo not drawn): > 2.08 µM (inactive). As to `Cc1ccccc1Nc1nc(N)nc(CCl)n1`, the EC50 was > 6.67 µM (inactive). The same measure for `COc1ccc(N(C(=O)CCl)C(C(=O)NCCc2ccccc2)c2cccs2)cc1` (stereo not drawn): 4.89 µM. In the case of `O=C(COc1ccc(Cl)cc1)Nc1ccc(C(=O)NCc2cccnc2)cc1`, the EC50 was > 6.67 µM (inactive). Under `CCN1/C(=C\C=C\C2=[N+](CC)c3ccccc3C2(C)C)C(C)(C)c2ccccc21` stands 0.287 µM; under `O=C(NCc1cccnc1)c1ccc(NC(=O)c2cccc([N+](=O)[O-])c2)cc1`, > 6.67 µM (inactive). Consider `COc1ccc(N(C(=O)CCl)C(C(=O)NCCc2ccccc2)c2cccs2)cc1Cl` (stereo not drawn), for which the EC50 was > 2.08 µM (inactive).

As to `COc1ccc(OC)c(Nc2nc(N)nc(CCl)n2)c1`, the EC50 was > 6.67 µM (inactive). Under `O=S(=O)(c1ccc2c(c1)C(=NO)c1cc(S(=O)(=O)N3CCCCC3)ccc1-2)N1CCCCC1` stands 2.58 µM.

Regarding `Cc1cccc(OCC(=O)Nc2ccc(C(=O)NCc3cccnc3)cc2)c1`, the EC50 is > 6.67 µM (inactive).

Turning to `Cc1ccc(C(=O)Sc2cccccc2=O)cc1`, the EC50 was 0.13 µM. Under `COc1ccc(S(=O)(=O)N2CCOCC2)cc1NC(=O)CCNC(=O)c1ccc(Br)cc1` stands > 6.67 µM (inactive); under `CC(C)C(=O)Nc1ccc(C(=O)NCc2cccnc2)cc1`, > 6.67 µM (inactive). The same measure for `COc1ccc(C(C(=O)NC2CCCCC2)N(C(=O)CCl)c2ccc(C)cc2)cc1` (stereo not drawn): > 6.67 µM (inactive); for `O=C(CCCCCN1C(=O)c2cccc3cccc(c23)C1=O)NCc1cccnc1`: > 6.67 µM (inactive); for `CC[C@@]1(O)C(=O)OCc2c1cc1n(c2=O)Cc2cc3c(N)cccc3nc2-1`: 0.052 µM. The same measure for `O=C(N/N=C/c1cccnc1)c1ccc(NC(=O)C(c2ccccc2)c2ccccc2)cc1`: > 6.67 µM (inactive).

On to `Cc1cccc(Nc2nc(N)nc(CCl)n2)c1`, for which the EC50 was > 6.67 µM (inactive).

In the case of `CC[C@H]1CN2CCc3cc(OC)c(OC)cc3[C@@H]2C[C@@H]1C[C@H]1NCCc2cc(OC)c(OC)cc21`, the EC50 was 0.0103 µM. With `C/C(=N\Nc1ccc2nncn2n1)c1ccccn1`, the EC50 is 5.47 µM. On to `CCN(CC)c1ccc(/C=N/NC(=O)c2nnn(-c3nonc3N)c2C(C)C)c(O)c1`, for which the EC50 is 0.954 µM. Take `Cc1ccc(/C=C2\SC(=S)N(CCCC(=O)N3CCOCC3)C2=O)cc1`: the EC50 was > 6.67 µM (inactive).
